The supplement of paper PMC7394473

Assays:
Settings in all cases: 72 h
U2OS [1] = test: fractional viability (live cells / total cells); higher = less cell death
Description: (§1)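 U2OS::Nuc-mKate2 cells seeded in 96-well plates and treated with eight- to ten-point half-log or log dilutions of drug in the presence of 50 nM SYTOX Green. Live (mKate2+) and dead (SYTOX+) cells were counted by IncuCyte STACK live-cell microscopy at 72 h; biological triplicates. GR is the normalised growth-rate inhibition value (Hafner 2016; 1 = untreated growth, <0 = population shrinking). FV is live/(live+dead) cells, not normalised.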

U2OS [2] = test: normalized growth rate inhibition value (GR) relative to untreated cells (GR value (dimensionless, 1 = untreated growth)); higher = less growth inhibition
Description: as §1

U2OS [3] = test: GR50 (concentration giving GR = 0.5)
Description: (§2)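 U2OS cells treated with full dose titrations of drug; live and dead cells counted by STACK microscopy (mKate2 nuclei, SYTOX Green) at 72 h, biological triplicates. GR and FV dose responses were fitted with 4-parameter logistic models (GR lower bound -1). GRADE (0-100) is the rescaled angle of a linear fit of FV versus GR at doses with GR >= 0, giving the percentage of the response due to cell death.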

U2OS [4] = test: drug GRADE (percent of response due to cell death) (% (0-100)); higher = more death-driven response
Description: as §2

U2OS [5] = test: GRmin (fitted minimal GR value at highest effect) (GR value (dimensionless)); higher = less efficacious
Description: as §2

SMILES | fractional viability (U2OS [1]; 0.00100578 µM) | fractional viability (U2OS [1]; 0.00317827 µM) | fractional viability (U2OS [1]; 0.0100433 µM) | fractional viability (U2OS [1]; 0.0317369 µM) | fractional viability (U2OS [1]; 0.100289 µM) | fractional viability (U2OS [1]; 0.316912 µM) | fractional viability (U2OS [1]; 1.00144 µM) | fractional viability (U2OS [1]; 3.16456 µM) | fractional viability (U2OS [1]; 10 µM) | normalized growth rate inhibition value (U2OS [2]; 0.00100578 µM) | normalized growth rate inhibition value (U2OS [2]; 0.00317827 µM) | normalized growth rate inhibition value (U2OS [2]; 0.0100433 µM) | normalized growth rate inhibition value (U2OS [2]; 0.0317369 µM) | normalized growth rate inhibition value (U2OS [2]; 0.100289 µM) | normalized growth rate inhibition value (U2OS [2]; 0.316912 µM) | normalized growth rate inhibition value (U2OS [2]; 1.00144 µM) | normalized growth rate inhibition value (U2OS [2]; 3.16456 µM) | normalized growth rate inhibition value (U2OS [2]; 10 µM) | GR50 (U2OS [3]) [µM] | drug GRADE (U2OS [4]) | fractional viability (U2OS [1]; 0.01 µM) | fractional viability (U2OS [1]; 0.0316 µM) | fractional viability (U2OS [1]; 0.1 µM) | fractional viability (U2OS [1]; 0.316 µM) | fractional viability (U2OS [1]; 1 µM) | fractional viability (U2OS [1]; 3.16 µM) | fractional viability (U2OS [1]; 31.6 µM) | GRmin (U2OS [5]) | normalized growth rate inhibition value (U2OS [2]; 0.01 µM) | normalized growth rate inhibition value (U2OS [2]; 0.0316 µM) | normalized growth rate inhibition value (U2OS [2]; 0.1 µM) | normalized growth rate inhibition value (U2OS [2]; 0.316 µM) | normalized growth rate inhibition value (U2OS [2]; 1 µM) | normalized growth rate inhibition value (U2OS [2]; 3.16 µM) | normalized growth rate inhibition value (U2OS [2]; 31.6 µM)
COc1cc2nccc(Oc3ccc(NC(=O)C4(C(=O)Nc5ccc(F)cc5)CC4)cc3)c2cc1OC [Cabozantinib] | 0.984 | 0.986 | 0.985 | 0.981 | 0.979 | 0.977 | 0.968 | 0.917 | 0.647 | 1.02 | 0.963 | 1.03 | 1.07 | 0.938 | 0.954 | 0.843 | 0.443 | -0.338 | 2.79 | 9.76 | – | – | – | – | – | – | – | – | – | – | – | – | – | – | –
COc1cc2c(Oc3ccc4[nH]c(C)cc4c3F)ncnc2cc1OCCCN1CCCC1 [Cediranib] | 0.987 | 0.986 | 0.986 | 0.988 | 0.986 | 0.987 | 0.974 | 0.966 | 0.686 | 0.951 | 1.04 | 1.11 | 1.04 | 0.987 | 1.07 | 0.861 | 0.837 | 0.308 | 7.19 | 55.1 | – | – | – | – | – | – | – | – | – | – | – | – | – | – | –
O=C(O)CCCc1ccc(N(CCCl)CCCl)cc1 [Chlorambucil] | – | – | – | – | – | – | – | – | 0.976 | – | – | – | – | – | – | – | – | 0.925 | – | – | 0.983 | 0.974 | 0.978 | 0.978 | 0.979 | 0.976 | 0.967 | 0.695 | 1.08 | 0.879 | 1.13 | 0.991 | 0.93 | 0.936 | 0.838
N.N.[Cl][Pt][Cl] [Cisplatin] | 0.99 | 0.989 | 0.988 | 0.99 | 0.988 | 0.986 | 0.984 | 0.957 | 0.884 | 0.959 | 0.955 | 1.02 | 0.95 | 0.901 | 0.972 | 0.755 | 0.248 | 0.0495 | 1.8 | 11.1 | – | – | – | – | – | – | – | 0.0264 | – | – | – | – | – | – | –
CN(C)/N=N/c1[nH]cnc1C(N)=O [Dacarbazine] | – | – | – | – | – | – | – | – | 0.942 | – | – | – | – | – | – | – | – | 0.837 | – | – | 0.975 | 0.984 | 0.974 | 0.978 | 0.975 | 0.964 | 0.926 | 0.749 | 1.08 | 1.01 | 0.899 | 0.939 | 0.934 | 0.821 | 0.769
Cc1nc(Nc2ncc(C(=O)Nc3c(C)cccc3Cl)s2)cc(N2CCN(CCO)CC2)n1 [Dasatinib] | 0.99 | 0.988 | 0.979 | 0.974 | 0.976 | 0.97 | 0.963 | 0.913 | 0.635 | 0.806 | 0.867 | 0.998 | 0.833 | 0.762 | 0.799 | 0.605 | 0.35 | -0.105 | 1.68 | 26.7 | – | – | – | – | – | – | – | – | – | – | – | – | – | – | –
CCOc1ccccc1-n1c(C(C)N2CCN(C(=O)COc3ccc(Cl)cc3)CC2)nc2ccccc2c1=O (configuration not stated) [Erastin] | – | – | – | – | – | – | – | – | 0.647 | – | – | – | – | – | – | – | – | 0.22 | 4.14 | 44.7 | 0.977 | 0.982 | 0.983 | 0.976 | 0.961 | 0.945 | 0.531 | -0.351 | 0.987 | 1 | 0.973 | 0.878 | 0.826 | 0.586 | -0.0643
C#Cc1cccc(Nc2ncnc3cc(OCCOC)c(OCCOC)cc23)c1 [Erlotinib] | – | – | – | – | – | – | – | – | 0.913 | – | – | – | – | – | – | – | – | 0.636 | – | 62.1 | 0.973 | 0.976 | 0.977 | 0.967 | 0.96 | 0.96 | 0.697 | 0.542 | 0.935 | 0.993 | 1.03 | 0.986 | 1.06 | 0.928 | 0.545
